Measurements as given in patent US8431596B2 (Cancer Research Technology Limited, priority 2007, dated 2013).

Target: T1, AXL (human catalytic domain) (Homo sapiens, UniProt P30530)
T1 construct: purchased Upstate Ltd. 14-512
T1 sequence (P30530 473-894): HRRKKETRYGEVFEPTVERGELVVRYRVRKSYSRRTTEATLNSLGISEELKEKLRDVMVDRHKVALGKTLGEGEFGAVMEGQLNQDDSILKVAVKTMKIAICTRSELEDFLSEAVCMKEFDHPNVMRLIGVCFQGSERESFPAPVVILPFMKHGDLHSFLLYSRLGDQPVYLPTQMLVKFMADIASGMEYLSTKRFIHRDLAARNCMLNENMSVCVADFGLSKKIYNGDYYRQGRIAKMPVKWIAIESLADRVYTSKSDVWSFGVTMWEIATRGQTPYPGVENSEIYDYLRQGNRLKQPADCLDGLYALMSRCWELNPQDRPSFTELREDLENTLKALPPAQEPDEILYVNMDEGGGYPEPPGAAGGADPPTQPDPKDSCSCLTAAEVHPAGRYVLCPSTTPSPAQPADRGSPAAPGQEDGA
Assay: AXL (human catalytic domain) Enzyme Activity Assay (IMAP fluorescence polarisation)
Assay type: biochemical
Details: further data set (WW-001 through WW-169, XX-001 through XX-469, YY-001 through YY-016, ZZ-001 through ZZ-003); 150 μM ATP
Outline: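 Recombinant human AXL isoform 1 (aa473-894; final 15 nM) phosphorylated 100 nM fluorescein-CSK-tide with 150 μM ATP (KM) in HEPES pH 7.0/MgCl2/DTT buffer for 60 min at room temperature. IMAP fluorescence polarisation read after overnight binding; IC50 from 10-point 4-parameter logistic fits.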

SMILES | IC50 [nM]
O=C(Nc1ccc(-c2cccc3nc(Nc4ccc(OCCN5CCCC5)cc4)nn23)cc1)c1ccccc1 [XX-221, N-(4-{2-[4-(2-Pyrrolidin-1-yl-ethoxy)-phenylamino]-[1,2,4]triazolo[1,5-a]pyridin-5-yl}-phenyl)-benzamide] | 1000 to 10000
O=C(Cc1cccc(Cl)c1)Nc1ccc(-c2cccc3nc(Nc4ccc(OCCN5CCCC5)cc4)nn23)cc1 [XX-222] | 1000 to 10000
Clc1cccc(CNc2ccc(-c3cccc4nc(Nc5ccc(OCCN6CCCC6)cc5)nn34)cc2)c1 [XX-223, {5-[4-(3-Chloro-benzylamino)-phenyl]-[1,2,4]triazolo[1,5-a]pyridin-2-yl}-[4-(2-pyrrolidin-1-yl-ethoxy)-phenyl]-amine] | 1000 to 10000
CS(=O)(=O)Nc1cccc(-c2cccc3nc(Nc4ccc(OCCN5CCCC5)cc4)nn23)c1 [XX-224] | 100 to 1000
O=C(Nc1ccc(C(F)(F)F)cc1)Nc1cccc(-c2cccc3nc(Nc4ccc(OCCN5CCCC5)cc4)nn23)c1 [XX-225] | 1000 to 10000
c1cc(-c2ccc3c(c2)OCCO3)n2nc(Nc3ccc(SCCN4CCCC4)cc3)nc2c1 [XX-226] | 100 to 1000
O=C(Cc1cccc(Cl)c1)Nc1cccc(-c2cccc3nc(Nc4ccc(OCCN5CCCC5)cc4)nn23)c1 [XX-227, 2-(3-Chloro-phenyl)-N-(3-{2-[4-(2-pyrrolidin-1-yl-ethoxy)-phenylamino]-[1,2,4]triazolo[1,5-a]pyridin-5-yl}-phenyl)-acetamide] | 1000 to 10000
CC(C(=O)Nc1cccc(-c2cccc3nc(Nc4ccc(OCCN5CCCC5)cc4)nn23)c1)c1cccc(Cl)c1 (stereo not shown) [XX-228] | 1000 to 10000
COc1ccccc1NC(=O)Nc1cccc(-c2cccc3nc(Nc4ccc(OCCN5CCCC5)cc4)nn23)c1 [XX-229] | 1000 to 10000
COc1cccc(NC(=O)Nc2cccc(-c3cccc4nc(Nc5ccc(OCCN6CCCC6)cc5)nn34)c2)c1 [XX-230] | 1000 to 10000
COc1ccc(NC(=O)Nc2cccc(-c3cccc4nc(Nc5ccc(OCCN6CCCC6)cc5)nn34)c2)cc1 [XX-231] | 100 to 1000
O=C(Nc1cccc(-c2cccc3nc(Nc4ccc(OCCN5CCCC5)cc4)nn23)c1)Nc1ccccc1Cl [XX-232] | 1000 to 10000
O=C(Nc1ccc(Cl)cc1)Nc1cccc(-c2cccc3nc(Nc4ccc(OCCN5CCCC5)cc4)nn23)c1 [XX-233] | 1000 to 10000
COc1ccc(-c2cccc3nc(Nc4ccc(OCCN5CCCC5)cc4)nn23)nc1 [XX-235] | 100 to 1000
CN(C)c1cccc(-c2cccc3nc(Nc4ccc(OCCN5CCCC5)cc4)nn23)c1 [XX-236] | 100 to 1000
OCc1ccc(-c2cccc3nc(Nc4ccc(OCCN5CCCC5)cc4)nn23)cc1 [XX-237] | 100 to 1000
Fc1ccccc1CNc1cccc(-c2cccc3nc(Nc4ccc(OCCN5CCCC5)cc4)nn23)c1 [XX-238] | 100 to 1000
CN(C)C(=O)c1ccc(-c2cccc3nc(Nc4ccc(OCCN5CCCC5)cc4)nn23)cc1 [XX-239] | 1000 to 10000
COc1ccc(-c2cccc3nc(Nc4ccc(OCCN5CCCC5)cc4)nn23)cc1F [XX-240] | 100 to 1000
CC(=O)Nc1cccc(-c2cccc3nc(Nc4ccc(OCCN5CCCC5)cc4)nn23)c1 [XX-241] | 100 to 1000
c1ccc2cc(-c3cccc4nc(Nc5ccc(OCCN6CCCC6)cc5)nn34)ccc2c1 [XX-242] | 100 to 1000
Oc1ccc(-c2cccc3nc(Nc4ccc(OCCN5CCCC5)cc4)nn23)cc1F [XX-243] | 100 to 1000

SMILES | IC50 [nM]
FC(F)(F)Oc1ccc(-c2cccc3nc(Nc4ccc(OCCN5CCCC5)cc4)nn23)cc1 [XX-244] | 100 to 1000
COc1ccc(-c2cccc3nc(Nc4ccc(OCCN5CCCC5)cc4)nn23)cc1OC [XX-245] | 1000 to 10000
COc1cc(-c2cccc3nc(Nc4ccc(OCCN5CCCC5)cc4)nn23)cc(OC)c1OC [XX-246] | 1000 to 10000
c1ccc(Oc2ccc(-c3cccc4nc(Nc5ccc(OCCN6CCCC6)cc5)nn34)cc2)cc1 [XX-247] | 100 to 1000
CC(c1ccc(-c2cccc3nc(Nc4ccc(OCCN5CCCC5)cc4)nn23)cc1)N(C)C (stereo not shown) [XX-248] | 100 to 1000
O=C(Nc1ccc(-c2cccc3nc(Nc4ccc(OCCN5CCCC5)cc4)nn23)cc1)c1ccncc1 [XX-249] | 100 to 1000
O=C(Nc1ccc(-c2cccc3nc(Nc4ccc(OCCN5CCCC5)cc4)nn23)cc1)c1ccno1 [XX-250] | 100 to 1000
Cc1cc(C(=O)Nc2ccc(-c3cccc4nc(Nc5ccc(OCCN6CCCC6)cc5)nn34)cc2)on1 [XX-251] | 100 to 1000
c1ccc(CNc2ccc(-c3cccc4nc(Nc5ccc(OCCN6CCCC6)cc5)nn34)cc2)cc1 [XX-252] | 100 to 1000
CS(=O)(=O)Nc1ccc(-c2cccc3nc(Nc4ccc(OCCN5CCCC5)cc4)nn23)cc1 [XX-253] | 100 to 1000
COc1ccc(S(=O)(=O)Nc2ccc(-c3cccc4nc(Nc5ccc(OCCN6CCCC6)cc5)nn34)cc2)cc1 [XX-254, 4-Methoxy-N-(4-{2-[4-(2-pyrrolidin-1-yl-ethoxy)-phenylamino]-[1,2,4]triazolo[1,5-a]pyridin-5-yl}-phenyl)-benzenesulfonamide] | 100 to 1000
Nc1cccc(-c2cccc3nc(Nc4ccc(OCCN5CCCC5)cc4)nn23)c1 [XX-255, [5-(3-Amino-phenyl)-[1,2,4]triazolo[1,5-a]pyridin-2-yl]-[4-(2-pyrrolidin-1-yl-ethoxy)-phenyl]-amine] | 100 to 1000
Oc1cccc(-c2cccc3nc(Nc4ccc(OCCN5CCCC5)cc4)nn23)c1 [XX-256, 3-{2-[4-(2-Pyrrolidin-1-yl-ethoxy)-phenylamino]-[1,2,4]triazolo[1,5-a]pyridin-5-yl}-phenol] | 100 to 1000
c1cc(NCc2ccco2)cc(-c2cccc3nc(Nc4ccc(OCCN5CCCC5)cc4)nn23)c1 [XX-257] | 100 to 1000
Cn1ccnc1CNc1cccc(-c2cccc3nc(Nc4ccc(OCCN5CCCC5)cc4)nn23)c1 [XX-258] | 1000 to 10000
Cn1cncc1CNc1cccc(-c2cccc3nc(Nc4ccc(OCCN5CCCC5)cc4)nn23)c1 [XX-259] | 100 to 1000
c1cc(NCc2cncs2)cc(-c2cccc3nc(Nc4ccc(OCCN5CCCC5)cc4)nn23)c1 [XX-260] | 1000 to 10000
c1cc(NCc2ncc[nH]2)cc(-c2cccc3nc(Nc4ccc(OCCN5CCCC5)cc4)nn23)c1 [XX-261] | 100 to 1000
Cc1cc(CNc2cccc(-c3cccc4nc(Nc5ccc(OCCN6CCCC6)cc5)nn34)c2)n(C)n1 [XX-262] | 1000 to 10000
Cc1nc(C)c(CNc2cccc(-c3cccc4nc(Nc5ccc(OCCN6CCCC6)cc5)nn34)c2)s1 [XX-263] | 100 to 1000
Fc1cccc(CNc2cccc(-c3cccc4nc(Nc5ccc(OCCN6CCCC6)cc5)nn34)c2)c1 [XX-264] | 100 to 1000
c1ccc(CCNc2ccc(-c3cccc4nc(Nc5ccc(OCCN6CCCC6)cc5)nn34)cc2)cc1 [XX-265] | 1000 to 10000

SMILES | IC50 [nM]
COc1ccc(CNc2ccc(-c3cccc4nc(Nc5ccc(OCCN6CCCC6)cc5)nn34)cc2)cc1 [XX-266] | 100 to 1000
Cc1ccc(CNc2ccc(-c3cccc4nc(Nc5ccc(OCCN6CCCC6)cc5)nn34)cc2)cc1 [XX-267] | 100 to 1000
c1cc(-c2ccc(NCc3ccoc3)cc2)n2nc(Nc3ccc(OCCN4CCCC4)cc3)nc2c1 [XX-268] | 100 to 1000
CNC(=O)c1ccc(-c2cccc3nc(Nc4ccc(OCCN5CCCC5)cc4)nn23)cc1 [XX-269] | 1000 to 10000
c1cc(-c2ccc(Cn3cccn3)cc2)n2nc(Nc3ccc(OCCN4CCCC4)cc3)nc2c1 [XX-270] | 100 to 1000
Cc1ccc(S(=O)(=O)Nc2ccc(-c3cccc4nc(Nc5ccc(OCCN6CCCC6)cc5)nn34)cc2)cc1 [XX-271] | 100 to 1000
c1cc(-c2cnn(CCN3CCOCC3)c2)n2nc(Nc3ccc(OCCN4CCCC4)cc3)nc2c1 [XX-272] | 1000 to 10000
FC(F)(F)c1cccc(Cn2cc(-c3cccc4nc(Nc5ccc(OCCN6CCCC6)cc5)nn34)cn2)c1 [XX-273] | 100 to 1000
CC(C)Cn1cc(-c2cccc3nc(Nc4ccc(OCCN5CCCC5)cc4)nn23)cn1 [XX-274] | 1000 to 10000
c1csc(Cn2cc(-c3cccc4nc(Nc5ccc(OCCN6CCCC6)cc5)nn34)cn2)c1 [XX-275] | 100 to 1000
CS(=O)(=O)n1cc(-c2cccc3nc(Nc4ccc(OCCN5CCCC5)cc4)nn23)cn1 [XX-276, [5-(1-Methanesulfonyl-1H-pyrazol-4-yl)-[1,2,4]triazolo[1,5-a]pyridin-2-yl]-[4-(2-pyrrolidin-1-yl-ethoxy)-phenyl]-amine] | 100 to 1000
CC(=O)Nc1ccc(S(=O)(=O)Nc2ccc(-c3cccc4nc(Nc5ccc(OCCN6CCCC6)cc5)nn34)cc2)cc1 [XX-277] | 1000 to 10000
c1ccc(COc2cccc(-c3cccc4nc(Nc5ccc(OCCN6CCCC6)cc5)nn34)c2)cc1 [XX-278] | 100 to 1000
Cc1ccc(-c2cccc3nc(Nc4ccc(OCCN5CCCC5)cc4)nn23)cc1C [XX-279] | 100 to 1000
Cc1ccc(-c2cccc3nc(Nc4ccc(OCCN5CCCC5)cc4)nn23)cc1F [XX-280] | ≤ 100
c1cc(-c2ccc3[nH]ccc3c2)n2nc(Nc3ccc(OCCN4CCCC4)cc3)nc2c1 [XX-281] | 1000 to 10000
Fc1ccc(-c2cccc3nc(Nc4ccc(OCCN5CCCC5)cc4)nn23)cc1Cl [XX-282] | 100 to 1000
CS(=O)(=O)c1cccc(-c2cccc3nc(Nc4ccc(OCCN5CCCC5)cc4)nn23)c1 [XX-283] | 100 to 1000
CC(C)CS(=O)(=O)n1cc(-c2cccc3nc(Nc4ccc(OCCN5CCCC5)cc4)nn23)cn1 [XX-284] | 100 to 1000
O=S(=O)(c1cccc(Cl)c1)n1cc(-c2cccc3nc(Nc4ccc(OCCN5CCCC5)cc4)nn23)cn1 [XX-285] | 100 to 1000
